Five compounds from patent US20250034139A1, “AMINE COMPOUNDS HAVING ANTI-INFLAMMATORY, ANTIFUNGAL, ANTIPARASITIC, AND ANTICANCER ACTIVITY” (PHARMA CINQ, LLC, priority 2013, published 2025) can be followed below.

≈ marks a conversion by molar mass, not a printed value.

The test system of the first test is S. cerevisiae. The test is described as follows: Example I: Saccharomyces cerevisiae growth inhibition (OD 600 nm). It counts as cell-based. As to conditions: Saccharomyces cerevisiae, read-out: IC50, uM (50% inhibition of fungal growth); 18 hour incubation at 30° C., OD 600 nm, XLfit.
For `CCCCCCOc1ccc(CNc2ccnc3ccccc23)cc1F` [BK, N-[3-Fluoro-4-(hexyloxy)benzyl]quinolin-4-amine], the IC50 stood at 21.4 µM.

Turning to `CCCCCCOc1cccc(CNc2ccnc3ccccc23)c1` [Compound AC, N-[3-(Hexyloxy)benzyl]quinolin-4-amine], the IC50 is 27.7 µM.

Turning to `CCCCCCCCCCNc1ccnc2ccccc12` [Compound AG, N-(Decyl)quinolin-4-amine], the IC50 was determined as 19.4 µM.

Consider `CCCCCCOCCCCCCCCCCNc1ccnc2ccccc12` [Compound AL, N-[10-(Hexyloxy)decyl]quinolin-4-amine], for which the IC50 came to 9.67 µM.

Take `CCCCCCOCCCCCCCCNc1ccnc2c(Cl)cccc12` [Compound AX, 8-Chloro-N-[8-(hexyloxy)octyl]quinolin-4-amine]: the IC50 came out at 19.6 µM.

The same test, now with this note: Saccharomyces cerevisiae; 18 hour incubation at 30° C., OD 600 nm, XLfit; read-out: MIC, uM (99% of inhibition of fungal growth).
For `CCCCCCOc1ccc(CNc2ccnc3ccccc23)cc1F` [BK, N-[3-Fluoro-4-(hexyloxy)benzyl]quinolin-4-amine], the MIC was 29.4 µM (≈ 10.4 µg/mL).

`CCCCCCOc1cccc(CNc2ccnc3ccccc23)c1` [Compound AC, N-[3-(Hexyloxy)benzyl]quinolin-4-amine]: the MIC stood at 47.7 µM (≈ 15.9 µg/mL).

Consider `CCCCCCCCCCNc1ccnc2ccccc12` [Compound AG, N-(Decyl)quinolin-4-amine], for which the MIC was determined as 24.4 µM (≈ 6.93 µg/mL).

On to `CCCCCCOCCCCCCCCCCNc1ccnc2ccccc12` [Compound AL, N-[10-(Hexyloxy)decyl]quinolin-4-amine], for which the MIC was found to be 10.5 µM (≈ 4.03 µg/mL).

Take `CCCCCCOCCCCCCCCNc1ccnc2c(Cl)cccc12` [Compound AX, 8-Chloro-N-[8-(hexyloxy)octyl]quinolin-4-amine]: the MIC came to 19.9 µM (≈ 7.79 µg/mL).

A further test has as its system PC-3 prostate cancer cells. The test is described as follows: Example T: sensitisation of PC-3 cells to doxorubicin, oxaliplatin, paclitaxel or vincristine, Wst1. It counts as cell-based, human. The settings on record: Homo sapiens; PC-3 cells; compound 0.4 μM alone; 72 hours; Wst1; vehicle = 100; read-out: No Chemo: percent cell survival.
With `CCCCCCOc1ccc(CNc2ccnc3ccccc23)cc1F` [BK, N-[3-Fluoro-4-(hexyloxy)benzyl]quinolin-4-amine], the viability at 0.4 µM was found to be 29.2%.

With `CCCCCCOc1cccc(CNc2ccnc3ccccc23)c1` [Compound AC, N-[3-(Hexyloxy)benzyl]quinolin-4-amine], the viability at 0.4 µM is 61.5%.

Regarding `CCCCCCOCCCCCCCCCCNc1ccnc2ccccc12` [Compound AL, N-[10-(Hexyloxy)decyl]quinolin-4-amine], the viability at 0.4 µM turned out to be 61.6%.

As for `CCCCCCOCCCCCCCCNc1ccnc2c(Cl)cccc12` [Compound AX, 8-Chloro-N-[8-(hexyloxy)octyl]quinolin-4-amine], the viability at 0.4 µM came to 31.2%.

The same test, now with this note: Homo sapiens; PC-3 cells; compound 2.5 μM alone; 72 hours; Wst1; vehicle = 100; read-out: No Chemo: percent cell survival.
On to `CCCCCCCCCCNc1ccnc2ccccc12` [Compound AG, N-(Decyl)quinolin-4-amine], for which the viability at 2.5 µM came out at 18.4%.

The same test, now with this note: PC-3 cells; compound 0.4 μM + doxorubicin 3.5 μM; 72 hours; chemotherapy agent alone normalized to 100%.
`CCCCCCOc1ccc(CNc2ccnc3ccccc23)cc1F` [BK, N-[3-Fluoro-4-(hexyloxy)benzyl]quinolin-4-amine]: the “Doxorubicin 3.5 μM: percent cell survival” value worked out at 32.1%.

As to `CCCCCCOc1cccc(CNc2ccnc3ccccc23)c1` [Compound AC, N-[3-(Hexyloxy)benzyl]quinolin-4-amine], the “Doxorubicin 3.5 μM: percent cell survival” value turned out to be 32.8%.

`CCCCCCOCCCCCCCCCCNc1ccnc2ccccc12` [Compound AL, N-[10-(Hexyloxy)decyl]quinolin-4-amine]: the “Doxorubicin 3.5 μM: percent cell survival” value turned out to be 21.9%.

Turning to `CCCCCCOCCCCCCCCNc1ccnc2c(Cl)cccc12` [Compound AX, 8-Chloro-N-[8-(hexyloxy)octyl]quinolin-4-amine], the “Doxorubicin 3.5 μM: percent cell survival” value turned out to be 57.9%.

The same test, now with this note: PC-3 cells; compound 0.4 μM + oxaliplatin 100 μM; 72 hours; chemotherapy agent alone normalized to 100%.
As to `CCCCCCOc1ccc(CNc2ccnc3ccccc23)cc1F` [BK, N-[3-Fluoro-4-(hexyloxy)benzyl]quinolin-4-amine], the “Oxaliplatin 100 μM: percent cell survival” value amounted to 27.3%.

As for `CCCCCCOc1cccc(CNc2ccnc3ccccc23)c1` [Compound AC, N-[3-(Hexyloxy)benzyl]quinolin-4-amine], the “Oxaliplatin 100 μM: percent cell survival” value amounted to 30%.

As to `CCCCCCOCCCCCCCCCCNc1ccnc2ccccc12` [Compound AL, N-[10-(Hexyloxy)decyl]quinolin-4-amine], the “Oxaliplatin 100 μM: percent cell survival” value came to 21.9%.

`CCCCCCOCCCCCCCCNc1ccnc2c(Cl)cccc12` [Compound AX, 8-Chloro-N-[8-(hexyloxy)octyl]quinolin-4-amine]: the “Oxaliplatin 100 μM: percent cell survival” value turned out to be 49.5%.

Still in this test, the particulars now being: PC-3 cells; compound 0.4 μM + paclitaxel 50 μM; 72 hours; chemotherapy agent alone normalized to 100%.
`CCCCCCOc1ccc(CNc2ccnc3ccccc23)cc1F` [BK, N-[3-Fluoro-4-(hexyloxy)benzyl]quinolin-4-amine]: the “Paclitaxel 50 μM: percent cell survival” value came to 20.6%.

For the compound `CCCCCCOc1cccc(CNc2ccnc3ccccc23)c1` [Compound AC, N-[3-(Hexyloxy)benzyl]quinolin-4-amine], the “Paclitaxel 50 μM: percent cell survival” value is on record as 14%.

Regarding `CCCCCCOCCCCCCCCCCNc1ccnc2ccccc12` [Compound AL, N-[10-(Hexyloxy)decyl]quinolin-4-amine], the “Paclitaxel 50 μM: percent cell survival” value is on record as 51.8%.

As to `CCCCCCOCCCCCCCCNc1ccnc2c(Cl)cccc12` [Compound AX, 8-Chloro-N-[8-(hexyloxy)octyl]quinolin-4-amine], the “Paclitaxel 50 μM: percent cell survival” value turned out to be 26.7%.

Still in this test, the particulars now being: PC-3 cells; compound 0.4 μM + vincristine 100 nM; 72 hours; chemotherapy agent alone normalized to 100%.
Consider `CCCCCCOc1ccc(CNc2ccnc3ccccc23)cc1F` [BK, N-[3-Fluoro-4-(hexyloxy)benzyl]quinolin-4-amine], for which the “Vincristine 100 nM: percent cell survival” value was determined as 28.3%.

As for `CCCCCCOc1cccc(CNc2ccnc3ccccc23)c1` [Compound AC, N-[3-(Hexyloxy)benzyl]quinolin-4-amine], the “Vincristine 100 nM: percent cell survival” value was found to be 34.1%.

In the case of `CCCCCCOCCCCCCCCCCNc1ccnc2ccccc12` [Compound AL, N-[10-(Hexyloxy)decyl]quinolin-4-amine], the “Vincristine 100 nM: percent cell survival” value is reported as 28.1%.

With `CCCCCCOCCCCCCCCNc1ccnc2c(Cl)cccc12` [Compound AX, 8-Chloro-N-[8-(hexyloxy)octyl]quinolin-4-amine], the “Vincristine 100 nM: percent cell survival” value was determined as 31.5%.

Staying with this test, now noted: PC-3 cells; compound 2.5 μM + doxorubicin 3.5 μM; 72 hours; chemotherapy agent alone normalized to 100%.
Regarding `CCCCCCCCCCNc1ccnc2ccccc12` [Compound AG, N-(Decyl)quinolin-4-amine], the “Doxorubicin 3.5 μM: percent cell survival” value came out at 21.1%.

The test is the same for the next values; noted with them: PC-3 cells; compound 2.5 μM + oxaliplatin 100 μM; 72 hours; chemotherapy agent alone normalized to 100%.
Consider `CCCCCCCCCCNc1ccnc2ccccc12` [Compound AG, N-(Decyl)quinolin-4-amine], for which the “Oxaliplatin 100 μM: percent cell survival” value is recorded as 27.1%.

Still in this test, the particulars now being: PC-3 cells; compound 2.5 μM + paclitaxel 50 μM; 72 hours; chemotherapy agent alone normalized to 100%.
As for `CCCCCCCCCCNc1ccnc2ccccc12` [Compound AG, N-(Decyl)quinolin-4-amine], the “Paclitaxel 50 μM: percent cell survival” value came to 21.8%.

The same test, now with this note: PC-3 cells; compound 2.5 μM + vincristine 100 nM; 72 hours; chemotherapy agent alone normalized to 100%.
Regarding `CCCCCCCCCCNc1ccnc2ccccc12` [Compound AG, N-(Decyl)quinolin-4-amine], the “Vincristine 100 nM: percent cell survival” value is given as 17.1%.

The test system of another test is Cryptococcus neoformans (serotype D). The test is described as follows: Example K: Cryptococcus neoformans (serotype D) growth inhibition. The test is classed as cell-based. As to conditions: Cryptococcus deneoformans, 48 h, read-out: IC50 (concentration for 50% of inhibition).
As for `CCCCCCOc1cccc(CNc2ccnc3ccccc23)c1` [Compound AC, N-[3-(Hexyloxy)benzyl]quinolin-4-amine], the IC50 is 3.35 µM.

Still in this test, the particulars now being: Cryptococcus deneoformans, read-out: IC50 (concentration for 50% of inhibition); OD of 48 hour reading, 37° C., tested 4 to 60 μM, XLfit.
On to `CCCCCCOc1ccc(CNc2ccnc3ccccc23)cc1F` [BK, N-[3-Fluoro-4-(hexyloxy)benzyl]quinolin-4-amine], for which the IC50 turned out to be 2.44 µM.

`CCCCCCCCCCNc1ccnc2ccccc12` [Compound AG, N-(Decyl)quinolin-4-amine]: the IC50 is 1.78 µM.

For the compound `CCCCCCOCCCCCCCCCCNc1ccnc2ccccc12` [Compound AL, N-[10-(Hexyloxy)decyl]quinolin-4-amine], the IC50 came out at 1.88 µM.

Turning to `CCCCCCOCCCCCCCCNc1ccnc2c(Cl)cccc12` [Compound AX, 8-Chloro-N-[8-(hexyloxy)octyl]quinolin-4-amine], the IC50 came to 1.06 µM.

The same test, now with this note: Cryptococcus deneoformans; OD of 48 hour reading, 37° C., tested 4 to 60 μM, XLfit; read-out: MIC (concentration for maximum-99% of inhibition).
Take `CCCCCCOc1ccc(CNc2ccnc3ccccc23)cc1F` [BK, N-[3-Fluoro-4-(hexyloxy)benzyl]quinolin-4-amine]: the MIC is 16.5 µM (≈ 5.82 µg/mL).

For the compound `CCCCCCOc1cccc(CNc2ccnc3ccccc23)c1` [Compound AC, N-[3-(Hexyloxy)benzyl]quinolin-4-amine], the MIC came out at 19.4 µM (≈ 6.49 µg/mL).

Consider `CCCCCCCCCCNc1ccnc2ccccc12` [Compound AG, N-(Decyl)quinolin-4-amine], for which the MIC stood at 17.6 µM (≈ 4.99 µg/mL).

Consider `CCCCCCOCCCCCCCCCCNc1ccnc2ccccc12` [Compound AL, N-[10-(Hexyloxy)decyl]quinolin-4-amine], for which the MIC came to 11.5 µM (≈ 4.44 µg/mL).

On to `CCCCCCOCCCCCCCCNc1ccnc2c(Cl)cccc12` [Compound AX, 8-Chloro-N-[8-(hexyloxy)octyl]quinolin-4-amine], for which the MIC is 10.6 µM (≈ 4.13 µg/mL).

In a further test the test system is Candida albicans strain 3153. Put plainly: Example H: Candida albicans growth inhibition (OD 600 nm). The test is classed as cell-based. As to conditions: Candida albicans, 3153, 24 hrs at 30° C., YPD, XLfit, read-out: MIC (uM) (99% of inhibition of fungal growth). The essentials:
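Growth inhibition computed as % versus DMSO control from OD600 after ~24 h at 30° C. Inoculum: washed overnight YPD culture of strain 3153 at 3.5×10^4 CFU/ml in YPD; final compound concentrations 0, 5, 10, 16, 22, 30, 40 μM, duplicate wells.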
For the compound `CCCCCCOc1ccc(CNc2ccnc3ccccc23)cc1F` [BK, N-[3-Fluoro-4-(hexyloxy)benzyl]quinolin-4-amine], the MIC is 19 µM (≈ 6.71 µg/mL).

`CCCCCCOc1cccc(CNc2ccnc3ccccc23)c1` [Compound AC, N-[3-(Hexyloxy)benzyl]quinolin-4-amine]: the MIC came to 108 µM (≈ 36 µg/mL).

`CCCCCCCCCCNc1ccnc2ccccc12` [Compound AG, N-(Decyl)quinolin-4-amine]: the MIC was found to be 16 µM (≈ 4.55 µg/mL).

As for `CCCCCCOCCCCCCCCCCNc1ccnc2ccccc12` [Compound AL, N-[10-(Hexyloxy)decyl]quinolin-4-amine], the MIC came to 20.1 µM (≈ 7.72 µg/mL).

Turning to `CCCCCCOCCCCCCCCNc1ccnc2c(Cl)cccc12` [Compound AX, 8-Chloro-N-[8-(hexyloxy)octyl]quinolin-4-amine], the MIC worked out at 26.6 µM (≈ 10.4 µg/mL).

Staying with this test, now noted: Candida albicans, 3153, read-out: IC50 (uM) (50% inhibition of fungal growth), 24 hrs at 30° C., YPD, XLfit.
For the compound `CCCCCCOc1ccc(CNc2ccnc3ccccc23)cc1F` [BK, N-[3-Fluoro-4-(hexyloxy)benzyl]quinolin-4-amine], the IC50 amounted to 11.2 µM.

With `CCCCCCOc1cccc(CNc2ccnc3ccccc23)c1` [Compound AC, N-[3-(Hexyloxy)benzyl]quinolin-4-amine], the IC50 came out at 45.7 µM.

As for `CCCCCCCCCCNc1ccnc2ccccc12` [Compound AG, N-(Decyl)quinolin-4-amine], the IC50 turned out to be 8.92 µM.

`CCCCCCOCCCCCCCCCCNc1ccnc2ccccc12` [Compound AL, N-[10-(Hexyloxy)decyl]quinolin-4-amine]: the IC50 stood at 7.08 µM.

As to `CCCCCCOCCCCCCCCNc1ccnc2c(Cl)cccc12` [Compound AX, 8-Chloro-N-[8-(hexyloxy)octyl]quinolin-4-amine], the IC50 is 11.2 µM.
